This is an account of results in patent publication US11753432B2, “Compound with analgesic effect for use in prevention and treatment of pain” (Academia Sinica, priority 2017, dated 2023).

Molecules are shown by their SMILES.

A short description of series [1]: Tolerated dose / safety range in the ICS mouse model. The format is in vivo. As to the method:
Female C57BL/6JNarl mice aged 8-12 weeks were purchased from the National Laboratory Animal Center (Taipei, Taiwan). […] Mechanical hyperalgesia was assayed by testing the withdrawal response of mouse hindpaws to 0.2-mN von Frey filament stimulation.

In series [2] the target is T1, NK1R receptor in muscle nociceptors (Mus musculus, UniProt P30548).
T1 construct: whole-cell patch clamp recording on muscle nociceptors; endogenous in cells; host or cells: muscle nociceptors (primary sensory neurons; preparation not described)
As to the kind of experiment: Whole-cell patch clamp recording on muscle nociceptors (outward current). The format is cell-based. The text has this:
The JMF3737-induced outward current (IJMF3737) can cause nociceptor hyperpolarization and thus counteract the acid-induced depolarization in muscle nociceptors and thus inhibit pain associated with tissue acidosis.
Background: Patch clamp records ionic current or voltage across a cell membrane.

For series [3], the system named is mouse model of fibromyalgia (chronic widespread pain induced by intermittent cold stress). Description: Intermittent cold stress (ICS) mouse model of fibromyalgia; mechanical hyperalgesia, hindpaw withdrawal to 0.2-mN von Frey filament. The format is in vivo, mice (female C57BL/6JNarl). Particulars: for tolerance / therapeutic effect on repeated treatment: 1 mg/kg p.o. once a day for 4 days from day 5 after ICS. The method, then:
Female C57BL/6JNarl mice aged 8-12 weeks were purchased from the National Laboratory Animal Center (Taipei, Taiwan). The fibromyalgia model was developed by Ueda's group, in which mice were treated with intermittent cold stress for 2 days (Nishiyori, M.; Ueda, H. Prolonged gabapentin analgesia in an experimental mouse model of fibromyalgia. Mol. Pain 2008, 4, 52). Mice treated with intermittent cold stress developed long-lasting (>2 weeks) mechanical and thermal hyperalgesia. Analgesic effects of compound I-a1 (JMF3737) via i.p. (in 0.5% HPβCD) or p.o. (in 1% HPβCD) routes and compound I-d1 (JMF4413) via i.p. (in 0.5% HPβCD) were tested in these mice 5 days after intermittent cold stress. Mechanical hyperalgesia was assayed by testing the withdrawal response of mouse hindpaws to 0.2-mN von Frey filament stimulation.

The next series in a line: Solubility. The format is physicochemical.
A short description of the next series: Bioavailability. The settings on record: in vivo; read-out: bioavailability (F).
Setting [4] is: p.o. (oral gavage), ICS mouse model.

T1 sequence (P30548 whole entry): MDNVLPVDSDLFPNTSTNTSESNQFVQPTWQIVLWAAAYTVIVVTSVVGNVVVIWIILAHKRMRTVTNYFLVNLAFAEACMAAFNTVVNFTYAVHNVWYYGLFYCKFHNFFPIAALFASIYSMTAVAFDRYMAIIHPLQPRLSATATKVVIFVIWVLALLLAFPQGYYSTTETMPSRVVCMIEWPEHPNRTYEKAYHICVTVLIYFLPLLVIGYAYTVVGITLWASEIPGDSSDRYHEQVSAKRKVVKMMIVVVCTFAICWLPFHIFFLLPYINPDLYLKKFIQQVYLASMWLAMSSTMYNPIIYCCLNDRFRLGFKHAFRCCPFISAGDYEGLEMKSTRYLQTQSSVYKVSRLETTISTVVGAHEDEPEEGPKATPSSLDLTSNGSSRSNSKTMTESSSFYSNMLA

In general, melting point refers to the temperature of the solid-liquid transition. `CCCCNC(=O)OC[C@H]1O[C@@H](n2cnc3c(NCc4ccc(O)cc4)ncnc32)C(O)C1O` (stereo partly drawn) [Compound 8, 5′-O-(n-Butylaminocarbonyl)-N^6-(4-hydroxybenzyl)adenosine]: the melting point lay in the range of 187.4 to 189 °C.
Take `O=C(O)CNC(=O)OC[C@H]1O[C@@H](n2cnc3c(NCc4ccc(O)cc4)ncnc32)C(O)C1O` (stereo partly drawn) [I-a1, 5′-O-(Glycine-N-carbonyl)-N^6-(4-hydroxybenzyl)adenosine]: the “dose without causing appreciable detrimental effect” value in series [1] (i.p. and p.o.) was “at least 64 mg/kg”. Besides, the “induced outward current (IJMF3737) inhibited by NK1R antagonist” value in series [2] (JMF3737 10 μM with RP67580 10 μM, reversible inhibition) was 15 pA. Moreover, in series [2] (JMF3737 10 μM, muscle nociceptors), the “induced outward current (IJMF3737)” value stood at 40 pA. For the same molecule, in series [3] (1 mg/kg oral once a day for 4 days, since day 8, n=4), the “pain sensitivity to von Frey filament stimulation after repeated treatment” value is given as “decreased pain sensitivity”. Further, in series [3] (1 mg/kg oral once a day, day 5 to day 8, n=4), the “acute analgesic effect during repeated treatment” value is reported as “shows acute analgesic effect”. Also, the “tolerance / therapeutic effect on repeated treatment” value in series [3] is “no tolerance but therapeutic effect”; in series [3] (listed as JMF3737) it was “does not cause tolerance”. Moreover, the figures for the “analgesic effect (in words)” value in series [3] (2 mg (4 μmol)/kg via oral route) and in series [3] (ICS mouse model) were “appreciable analgesic effect” and “superior analgesic effect to that of T1-11”, respectively. For the same molecule, the “dose-dependent analgesic effect, effective dose starting from” value was 1 mg/kg in series [3] (i.p., ICS mouse model) and 1 mg/kg in series [3] (setting [4]). In addition, the “analgesic effect compared with T1-11” value in series [3] (via oral route) is reported as “better analgesic effect over T1-11”.
For the molecule `O=C(O)CNC(=O)NC[C@H]1O[C@@H](n2cnc3c(NCc4ccc(O)cc4)ncnc32)C(O)C1O` (stereo partly drawn) [I-d1, 5′-Deoxy-5′-(glycine-N-amido)-N^6-(4-hydroxybenzyl)adenosine], in series [1] (i.p.), the “dose without causing appreciable detrimental effect” value was 64 mg/kg. The “analgesic effect (in words)” value in series [3] (64 mg/kg via i.p. route, n=2) is “good analgesic effect”; in series [3] (ICS mouse model) it was “excellent analgesic effect”.
Broadly, the bioavailability is the share of a dose that reaches the circulation, judged against a reference dose that is usually intravenous. As to `OC[C@H]1O[C@@H](n2cnc3c(NCc4ccc(O)cc4)ncnc32)[C@H](O)[C@@H]1O` [T1-11, N^6-(4-hydroxybenzyl)adenosine, reference compound], in “Solubility”, the “solubility in dimethylsulfoxide (DMSO)” value is on record as “good solubility”. For the same molecule, in series [3] (ICS mouse model), the “analgesic effect (in words)” value is “excellent analgesic effect”. In addition, the “dose-dependent analgesic effect, effective dose starting from” value came to 0.03 mg/kg in series [3] (i.p., ICS mouse model) and 8 mg/kg in series [3] (setting [4]). For the same molecule, the bioavailability in “Bioavailability” was about 5%.
